Measured values reported in the supplement of paper PMC11061612.

What was measured:
[1] = compound: C1CC(C1)(C(=O)[O-])C(=O)[O-].N.N.[Pt+2] [Carboplatin]; conditions: max 10 µM
Outline: (§1)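 Following 24 hours at 37°C and 5% CO2, cancer cell lines in 1536-well plates with 7.5 μl DMEM/F12 or RPMI and 10% FBS were dosed for 72 hours, final DMSO typically being 0.2%. CellTiter-Glo 2.0 luminescence, scaled between blank-well and DMSO-well means, gave the viability readout. Dose responses were fitted to a two-parameter logistic curve with a non-linear mixed effects model, and the single-agent IC50 was derived from this fit.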

[2] = compound: C1CN(CCC1(C(=O)N[C@@H](CCO)C2=CC=C(C=C2)Cl)N)C3=NC=NC4=C3C=CN4 [AZD5363]; conditions: max 10 µM
Outline: as §1

[3] = compound: C=CCn1c(=O)c2cnc(Nc3ccc(N4CCN(C)CC4)cc3)nc2n1-c1cccc(C(C)(C)O)n1 [AZD1775]; conditions: max 3 µM
Outline: as §1

[4] = compound: CC(=O)Nc1cccc(-n2c(=O)n(C3CC3)c(=O)c3c(Nc4ccc(I)cc4F)n(C)c(=O)c(C)c32)c1 [Trametinib]; conditions: max 1 µM
Outline: as §1

[5] = compound: CC(=O)O[C@H]1C(=O)[C@@]2(C)[C@H]([C@H](OC(=O)c3ccccc3)[C@]3(O)C[C@H](OC(=O)[C@H](O)[C@@H](NC(=O)c4ccccc4)c4ccccc4)C(C)=C1C3(C)C)[C@]1(OC(C)=O)CO[C@@H]1C[C@@H]2O [Paclitaxel]; conditions: max 3 µM
Outline: as §1

[6] = compound: CC(=O)c1c(C)c2cnc(Nc3ccc(N4CCNCC4)cn3)nc2n(C2CCCC2)c1=O [Palbociclib]; conditions: max 10 µM
Outline: as §1

[7] = compound: CC(C)n1c(=O)n(C)c2cnc3cc(F)c(-c4ccc(OCCCN5CCCCC5)nc4)cc3c21 [AZD1390]; conditions: max 0.3 µM
Outline: as §1

[8] = compound: CC1(C)CCC(CN2CCN(c3ccc(C(=O)NS(=O)(=O)c4ccc(NCC5CCOCC5)c([N+](=O)[O-])c4)c(Oc4cnc5[nH]ccc5c4)c3)CC2)=C(c2ccc(Cl)cc2)C1 [Venetoclax]; conditions: max 1 µM
Outline: as §1

[9] = compound: CC1=C(C(=CC=C1)Cl)NC(=O)C2=CN=C(S2)NC3=CC(=NC(=N3)C)N4CCN(CC4)CCO [Dasatinib]; conditions: max 2 µM
Outline: as §1

[10] = compound: CC1=CN2[C@@H](C1)C=NC3=CC(=C(C=C3C2=O)OC)OCCCCCOC4=C(C=C5C(=C4)N=C[C@@H]6CC(=CN6C5=O)C)OC [SG3199]; conditions: max 0.001 µM
Outline: as §1

[11] = compound: CCN(CCO)CCCOc1ccc2c(Nc3cc(CC(=O)Nc4cccc(F)c4)[nH]n3)ncnc2c1 [AZD2811]; conditions: max 1 µM
Outline: as §1

[12] = compound: CCc1c2c(nc3ccc(O)cc13)-c1cc3c(c(=O)n1C2)COC(=O)[C@]3(O)CC [SN-38]; conditions: max 0.3 µM
Outline: as §1

[13] = compound: CN(C)CCCOc1ccc(-c2ccc3ncc4c(c3c2)n(C2CCOCC2)c(=O)n4C)cn1 [AZD0156]; conditions: max 3 µM
Outline: as §1

[14] = compound: CN(CC[C@H](CSC1=CC=CC=C1)NC2=C(C=C(C=C2)S(=O)(=O)NC(=O)C3=CC=C(C=C3)N4CCC(CC4)[C@H](C5=CC=CC=C5C6=CC=C(C=C6)Cl)O)S(=O)(=O)C(F)(F)F)CCO [AZD4320]; conditions: max 1 µM
Outline: as §1

[15] = compound: COc1cc(Nc2ncc3c(n2)-c2ccc(Cl)cc2C(c2c(F)cccc2OC)=NC3)ccc1C(=O)O [Alisertib]; conditions: max 10 µM
Outline: as §1

[16] = compound: COc1cc([C@@H]2c3cc4c(cc3[C@@H](O[C@@H]3O[C@@H]5CO[C@@H](C)O[C@H]5[C@H](O)[C@H]3O)[C@H]3COC(=O)[C@H]23)OCO4)cc(OC)c1O [Etoposide]; conditions: max 10 µM
Outline: as §1

[17] = compound: COc1cc2ncnc(Nc3ccc(F)c(Cl)c3)c2cc1OCCCN1CCOCC1 [Gefitinib]; conditions: max 10 µM
Outline: as §1

[18] = compound: COc1cccc(OCCCN)c1-c1cc(Nc2cnc(C#N)cn2)n[nH]1 [Prexasertib]; conditions: max 1 µM
Outline: as §1

[19] = compound: COc1cccc2c1C(=O)c1c(O)c3c(c(O)c1C2=O)C[C@@](O)(C(=O)CO)C[C@@H]3O[C@H]1C[C@H](N)[C@H](O)[C@H](C)O1 [Doxorubicin]; conditions: max 1 µM
Outline: as §1

[20] = compound: COc1nnc2ccc(N3CCC(c4ccc(OCCN5CCN(C)C(=O)[C@H]5C)cc4)CC3)nn12 [AZD5153]; conditions: max 1 µM
Outline: as §1

[21] = compound: CS(=O)(=O)CCNCc1ccc(-c2ccc3ncnc(Nc4ccc(OCc5cccc(F)c5)c(Cl)c4)c3c2)o1 [Lapatinib]; conditions: max 10 µM
Outline: as §1

[22] = compound: C[C@@H](Nc1cc(F)cc(F)c1)c1cc(C(=O)N(C)C)cc2c(=O)cc(N3CCOCC3)oc12 [AZD8186]; conditions: max 10 µM
Outline: as §1

[23] = compound: C[C@@H](Oc1cc(-c2cnn(C3CCNCC3)c2)cnc1N)c1c(Cl)ccc(F)c1Cl [Crizotinib]; conditions: max 10 µM
Outline: as §1

[24] = compound: C[C@@H](c1ccc2nccn2c1)n1nnc2ncc(-c3cnn(C)c3)nc21 [Savolitinib]; conditions: max 1 µM
Outline: as §1

[25] = compound: C[C@@H]1COCCN1C2=NC(=NC(=C2)C3(CC3)[S@](=N)(=O)C)C4=C5C=CNC5=NC=C4 [AZD6738]; conditions: max 10 µM
Outline: as §1

[26] = compound: Cc1c2c(nn1C)CSCc1cc(n(C)n1)CSc1cc(c3ccccc3c1)OCCCc1c(C(=O)O)n(C)c3c-2c(Cl)ccc13 [AZD5991]; conditions: max 1 µM
Outline: as §1

[27] = compound: Cc1cc2ncnn2cc1Nc1ncc2c(n1)n(C1CCOCC1)c(=O)n2C [AZD7648]; conditions: max 10 µM
Outline: as §1

[28] = compound: Cc1nc(-c2cn3c(n2)-c2ccc(-c4cnn(C(C)(C)C(N)=O)c4)cc2OCC3)n(C(C)C)n1 [Taselisib]; conditions: max 10 µM
Outline: as §1

[29] = compound: Cn1cnc2c(F)c(Nc3ccc(Br)cc3Cl)c(C(=O)NOCCO)cc21 [Selumetinib]; conditions: max 10 µM
Outline: as §1

[30] = compound: N#Cc1cnc(Nc2cc(NC[C@H]3CNCCO3)c(C(F)(F)F)cn2)cn1 [SRA737]; conditions: max 10 µM
Outline: as §1

[31] = compound: NC1(c2ccc(-c3nc4ccn5c(=O)[nH]nc5c4cc3-c3ccccc3)cc2)CCC1 [MK-2206]; conditions: max 10 µM
Outline: as §1

[32] = compound: Nc1ccn([C@@H]2O[C@H](CO)[C@@H](O)C2(F)F)c(=O)n1 [Gemcitabine]; conditions: max 0.3 µM
Outline: as §1

[33] = compound: O=C(Nc1ccc2[nH]nc(-c3ccncc3)c2c1)[C@@H]1CCN(CC(=O)N2CCN(c3ccc(-c4ncccn4)cc3)CC2)C1; conditions: max 5 µM
Outline: as §1

[34] = compound: O=C(c1cc(Cc2n[nH]c(=O)c3ccccc23)ccc1F)N1CCN(C(=O)C2CC2)CC1 [Olaparib]; conditions: max 10 µM
Outline: as §1

[35] = compound: O=c1[nH]cc(F)c(=O)[nH]1 [5-Fluorouracil]; conditions: max 20 µM
Outline: as §1

| Cell Line | IC50, cell viability 72 h [1] [nM] | IC50, cell viability 72 h [2] [nM] | IC50, cell viability 72 h [3] [nM] | IC50, cell viability 72 h [4] [nM] | IC50, cell viability 72 h [5] [nM] | IC50, cell viability 72 h [6] [nM] | IC50, cell viability 72 h [7] [nM] | IC50, cell viability 72 h [8] [nM] | IC50, cell viability 72 h [9] [nM] | IC50, cell viability 72 h [10] [nM] | IC50, cell viability 72 h [11] [nM] | IC50, cell viability 72 h [12] [nM] | IC50, cell viability 72 h [13] [nM] | IC50, cell viability 72 h [14] [nM] | IC50, cell viability 72 h [15] [nM] | IC50, cell viability 72 h [16] [nM] | IC50, cell viability 72 h [17] [nM] | IC50, cell viability 72 h [18] [nM] | IC50, cell viability 72 h [19] [nM] | IC50, cell viability 72 h [20] [nM] | IC50, cell viability 72 h [21] [nM] | IC50, cell viability 72 h [22] [nM] | IC50, cell viability 72 h [23] [nM] | IC50, cell viability 72 h [24] [nM] | IC50, cell viability 72 h [25] [nM] | IC50, cell viability 72 h [26] [nM] | IC50, cell viability 72 h [27] [nM] | IC50, cell viability 72 h [28] [nM] | IC50, cell viability 72 h [29] [nM] | IC50, cell viability 72 h [30] [nM] | IC50, cell viability 72 h [31] [nM] | IC50, cell viability 72 h [32] [nM] | IC50, cell viability 72 h [33] [nM] | IC50, cell viability 72 h [34] [nM] | IC50, cell viability 72 h [35] [nM] |
| --- | --- | --- | --- | --- | --- | --- | --- | --- | --- | --- | --- | --- | --- | --- | --- | --- | --- | --- | --- | --- | --- | --- | --- | --- | --- | --- | --- | --- | --- | --- | --- | --- | --- | --- | --- |
| SW1088 (Low Grade Glioma) | > 10000 | 6480 | 2040 | > 1000 | 29.1 | > 10000 | > 300 | > 1000 | 283 | > 1 | > 1000 | > 300 | > 3000 | > 1000 | 807 | > 10000 | > 10000 | 129 | > 1000 | > 1000 | > 10000 | 1740 | > 10000 | > 1000 | 9510 | > 1000 | > 10000 | 4280 | > 10000 | > 10000 | > 10000 | > 300 | > 5000 | > 10000 | > 20000 |
| SW1783 (Low Grade Glioma) | > 10000 | > 10000 | 1410 | > 1000 | 407 | > 10000 | > 300 | > 1000 | > 2000 | > 1 | > 1000 | 45.2 | > 3000 | > 1000 | 8540 | > 10000 | > 10000 | > 1000 | > 1000 | > 1000 | > 10000 | 8000 | > 10000 | > 1000 | > 10000 | > 1000 | > 10000 | 5980 | > 10000 | > 10000 | > 10000 | 121 | > 5000 | > 10000 | > 20000 |
| SW1990 (Pancreatic Carcinoma) | > 10000 | > 10000 | > 3000 | > 1000 | > 3000 | > 10000 | > 300 | > 1000 | > 2000 | > 1 | > 1000 | > 300 | > 3000 | > 1000 | > 10000 | > 10000 | > 10000 | 49.9 | > 1000 | > 1000 | > 10000 | > 10000 | > 10000 | > 1000 | > 10000 | > 1000 | > 10000 | > 10000 | > 10000 | 9750 | > 10000 | > 300 | > 5000 | > 10000 | > 20000 |
| TE-5 (Esophageal Squamous Cell Carcinoma) | > 10000 | > 10000 | > 3000 | > 1000 | 79.8 | > 10000 | > 300 | > 1000 | > 2000 | > 1 | > 1000 | 55.8 | > 3000 | > 1000 | > 10000 | > 10000 | > 10000 | 884 | > 1000 | > 1000 | > 10000 | > 10000 | > 10000 | > 1000 | > 10000 | > 1000 | > 10000 | 2040 | > 10000 | > 10000 | > 10000 | 71.4 | > 5000 | > 10000 | > 20000 |
| U-266 (Plasma Cell Myeloma) | > 10000 | > 10000 | 1030 | 225 | 10.2 | > 10000 | > 300 | > 1000 | > 2000 | > 1 | > 1000 | > 300 | > 3000 | 841 | 9540 | > 10000 | > 10000 | 50.6 | > 1000 | > 1000 | > 10000 | > 10000 | > 10000 | > 1000 | > 10000 | 219 | > 10000 | > 10000 | > 10000 | > 10000 | > 10000 | 131 | 4960 | > 10000 | > 20000 |
